This is an account of results in patent US10195196B2, “1,4-disubstituted pyridazine analogs there of and methods for treating SMN-deficiency-related conditions” (NOVARTIS AG, priority 2012, dated 2019).

The test system of this experiment is SMN protein. The experiment in a line: cellular SMN ELISA (SMN protein elevation). It counts as cell-based. Conditions: ELISA condition 2: compound concentration 100 pM-10 uM, myoblast cell line from SMNdelta7 mouse model, 24 hours treatment; for SMN activity Fold: fold activation over DMSO control. Summed up: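 SMNdelta7 mouse-derived myoblasts were treated with compound for 24 h, then lysed. SMN protein was quantified by sandwich ELISA (HRP/TMB, 450 nm) and reported as fold over DMSO and EC50, over 20 nM–10 μM or 100 pM–10 μM depending on condition.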

Regarding `CN(c1ccc(-c2cc3c(cc2O)C(O)CC3)nn1)C1CC(C)(C)NC(C)(C)C1` (centres unmarked) [Example 35-4, 5-(6-(methyl(2,2,6,6-tetramethylpiperidin-4-yl)amino)pyridazin-3-yl)-2,3-dihydro-1H-indene-1,6-diol], a half-maximal effect (EC50) was put at 131 nM and the “SMN activity Fold” value stood at 2.11 Fold.
For the compound `CN(c1ccc(-c2cc3c(cc2O)-c2nc(N)sc2C3)nn1)C1CC(C)(C)NC(C)(C)C1` [Example 35-5, 2-amino-6-(6-(methyl(2,2,6,6-tetramethylpiperidin-4-yl)amino)pyridazin-3-yl)-8H-indeno[1,2-d]thiazol-5-ol], the EC50 worked out at 6 nM and the “SMN activity Fold” value worked out at 2.44 Fold.
Turning to `CN(c1ccc(-c2cc3c(cc2O)CCn2cncc2-3)nn1)C1CC(C)(C)NC(C)(C)C1` [Example 35-6, 9-(6-(methyl(2,2,6,6-tetramethylpiperidin-4-yl)amino)pyridazin-3-yl)-5,6-dihydroimidazo[5,1-a]isoquinolin-8-ol], the EC50 turned out to be 51 nM and the “SMN activity Fold” value is on record as 2.21 Fold.
For `CN(c1ccc(-c2cc(C(=O)NCc3cnn(C)c3)ccc2O)nn1)C1CC(C)(C)NC(C)(C)C1` [Example 36-1, 4-hydroxy-3-(6-(methyl(2,2,6,6-tetramethylpiperidin-4-yl)amino)pyridazin-3-yl)-N-((1-methyl-1H-pyrazol-4-yl)methyl)benzamide], it took 652 nM to reach a half-maximal effect (EC50) and the “SMN activity Fold” value turned out to be 2.04 Fold.
`CN(c1ccc(-c2cc(-n3cc(CO)cn3)ccc2O)nn1)C1CC(C)(C)NC(C)(C)C1` [Example 37-1, 4-(4-(hydroxymethyl)-1H-pyrazol-1-yl)-2-(6-(methyl(2,2,6,6-tetramethylpiperidin-4-yl)amino)pyridazin-3-yl)phenol]: a half-maximal effect (EC50) was put at 118 nM and the “SMN activity Fold” value worked out at 2.59 Fold.
For `CN(c1ccc(-c2ccc3cnc(OCc4ccccc4)cc3c2)nn1)C1CC(C)(C)NC(C)(C)C1` [Example 39-1, 6-(3-(benzyloxy)isoquinolin-6-yl)-N-methyl-N-(2,2,6,6-tetramethylpiperidin-4-yl)pyridazin-3-amine], the EC50 worked out at 1030 nM and the “SMN activity Fold” value is recorded as 2.65 Fold.
Take `CN(c1ccc(-c2ccc3ccnc(OCc4ccccc4)c3c2)nn1)C1CC(C)(C)NC(C)(C)C1` [Example 39-2, 6-(1-(benzyloxy)isoquinolin-7-yl)-N-methyl-N-(2,2,6,6-tetramethylpiperidin-4-yl)pyridazin-3-amine]: the EC50 was 408 nM and the “SMN activity Fold” value is 3.04 Fold.
Consider `COc1cc(-c2cc(O)c(-c3ccc(N(C)C4CC(C)(C)NC(C)(C)C4)nn3)c(F)c2)ccn1` [Example 40-1, 3-fluoro-5-(2-methoxypyridin-4-yl)-2-(6-(methyl(2,2,6,6-tetramethylpiperidin-4-yl)amino)pyridazin-3-yl)phenol], for which the EC50 was 79 nM and the “SMN activity Fold” value was found to be 2.58 Fold.
Consider `CN(c1ccc(-c2c(O)cc(-c3cc[nH]c(=O)c3)cc2F)nn1)C1CC(C)(C)NC(C)(C)C1` [Example 40-2, 4-(3-fluoro-5-hydroxy-4-(6-(methyl(2,2,6,6-tetramethylpiperidin-4-yl)amino)pyridazin-3-yl)phenyl)pyridin-2(1H)-one], for which a half-maximal response (EC50) required 25 nM and the “SMN activity Fold” value is reported as 2.78 Fold.
In the case of `CN(c1ccc(-c2c(O)cc(-c3ccn(C)c(=O)c3)cc2F)nn1)C1CC(C)(C)NC(C)(C)C1` [Example 40-3, 4-(3-fluoro-5-hydroxy-4-(6-(methyl(2,2,6,6-tetramethylpiperidin-4-yl)amino)pyridazin-3-yl)phenyl)-1-methylpyridin-2(1H)-one], the response was half-maximal at 11 nM (EC50) and the “SMN activity Fold” value amounted to 3.03 Fold.
Taken in the same sequence, the figures for `CN(c1ccc(-c2c(O)cc(-c3ccc(=O)n(C)c3)cc2F)nn1)C1CC(C)(C)NC(C)(C)C1` [Example 40-4, 5-(3-fluoro-5-hydroxy-4-(6-(methyl(2,2,6,6-tetramethylpiperidin-4-yl)amino)pyridazin-3-yl)phenyl)-1-methylpyridin-2(1H)-one] were 15 nM and 2.14 Fold.
With `CC1(C)CC(Oc2ccc(-c3c(O)cc(-c4cn[nH]c4)cc3F)nn2)CC(C)(C)N1` [Example 40-5, 3-fluoro-5-(1H-pyrazol-4-yl)-2-(6-((2,2,6,6-tetramethylpiperidin-4-yl)oxy)pyridazin-3-yl)phenol], it took 17 nM to reach a half-maximal effect (EC50) and the “SMN activity Fold” value came to 3.59 Fold.
Turning to `CN(c1ccc(-c2c(O)cc(Cl)cc2F)nn1)C1CC(C)(C)NC(C)(C)C1` [Example 40-6, 5-chloro-3-fluoro-2-(6-(methyl(2,2,6,6-tetramethylpiperidin-4-yl)amino)pyridazin-3-yl)phenol], the EC50 stood at 208 nM and the “SMN activity Fold” value is 2.16 Fold.
For the compound `CN(c1ccc(-c2c(O)cc(-c3cn[nH]c3)cc2F)nn1)C1CC(C)(C)NC(C)(C)C1` [Example 40-7, 3-fluoro-2-(6-(methyl(2,2,6,6-tetramethylpiperidin-4-yl)amino)pyridazin-3-yl)-5-(1H-pyrazol-4-yl)phenol], the midpoint of the response, the EC50, lay at 4 nM and the “SMN activity Fold” value was 2.80 Fold.
As for `CN(c1ccc(-c2c(O)cc(-c3cnn(C)c3)cc2F)nn1)C1CC(C)(C)NC(C)(C)C1` [Example 40-8, 3-fluoro-2-(6-(methyl(2,2,6,6-tetramethylpiperidin-4-yl)amino)pyridazin-3-yl)-5-(1-methyl-1H-pyrazol-4-yl)phenol], the EC50 amounted to 16 nM and the “SMN activity Fold” value stood at 3.18 Fold.
Turning to `COc1cncc(-c2ccc(-c3ccc(N(C)C4CC(C)(C)NC(C)(C)C4)nn3)c(O)c2)c1` [Example 41-1, 5-(5-methoxypyridin-3-yl)-2-(6-(methyl(2,2,6,6-tetramethylpiperidin-4-yl)amino)pyridazin-3-yl)phenol], a half-maximal effect (EC50) was put at 125 nM and the “SMN activity Fold” value was 2.78 Fold.
In the case of `CN(c1ccc(-c2ccc(-c3ccc(O)nc3)cc2O)nn1)C1CC(C)(C)NC(C)(C)C1` [Example 41-2], it took 50 nM to reach a half-maximal effect (EC50) and the “SMN activity Fold” value is on record as 2.68 Fold.
For the compound `CN(c1ccc(-c2ccc(-c3ccnc(O)c3)cc2O)nn1)C1CC(C)(C)NC(C)(C)C1` [Example 41-3], the EC50 amounted to 66 nM and the “SMN activity Fold” value was determined as 3.10 Fold.
For the compound `COc1ccc(-c2ccc(-c3ccc(N(C)C4CC(C)(C)NC(C)(C)C4)nn3)c(O)c2)cn1` [Example 41-4, 5-(6-methoxypyridin-3-yl)-2-(6-(methyl(2,2,6,6-tetramethylpiperidin-4-yl)amino)pyridazin-3-yl)phenol], the EC50 was 80 nM and the “SMN activity Fold” value amounted to 3.29 Fold.
For the compound `CN(c1ccc(-c2ccc(-c3cnc(O)c(C(F)(F)F)c3)cc2O)nn1)C1CC(C)(C)NC(C)(C)C1` [Example 41-5, 5-(3-hydroxy-4-(6-(methyl(2,2,6,6-tetramethylpiperidin-4-yl)amino)pyridazin-3-yl)phenyl)-3-(trifluoromethyl)pyridin-2-ol], the concentration giving a half-maximal response (EC50) was 175 nM and the “SMN activity Fold” value is on record as 2.88 Fold.
The corresponding values for `CN(c1ccc(-c2ccc(-c3ccc(=O)n(C)c3)cc2O)nn1)C1CC(C)(C)NC(C)(C)C1` [Example 41-6, 5-(3-hydroxy-4-(6-(methyl(2,2,6,6-tetramethylpiperidin-4-yl)amino)pyridazin-3-yl)phenyl)-1-methylpyridin-2(1H)-one] are 10 nM and 2.67 Fold.
Regarding `CN(c1ccc(-c2ccc(-c3ccn(C)c(=O)c3)cc2O)nn1)C1CC(C)(C)NC(C)(C)C1` [Example 41-7, 4-(3-hydroxy-4-(6-(methyl(2,2,6,6-tetramethylpiperidin-4-yl)amino)pyridazin-3-yl)phenyl)-1-methylpyridin-2(1H)-one], the EC50 worked out at 7 nM and the “SMN activity Fold” value amounted to 2.87 Fold.
The corresponding values for `COc1cc(-c2ccc(-c3ccc(N(C)C4CC(C)(C)NC(C)(C)C4)nn3)c(O)c2)ccn1` [Example 41-8, 5-(2-methoxypyridin-4-yl)-2-(6-(methyl(2,2,6,6-tetramethylpiperidin-4-yl)amino)pyridazin-3-yl)phenol] are 62 nM and 3.18 Fold.
Consider `CC1(C)CC(Oc2ccc(-c3ccc(-c4ccnc(O)c4)cc3O)nn2)CC(C)(C)N1` [Example 41-9, 4-(3-hydroxy-4-(6-((2,2,6,6-tetramethylpiperidin-4-yl)oxy)pyridazin-3-yl)phenyl)pyridin-2-ol], for which the midpoint of the response, the EC50, lay at 72 nM and the “SMN activity Fold” value is given as 4.2 Fold.
Consider `CN(C)c1ccc(-c2ccc(-c3ccc(N(C)C4CC(C)(C)NC(C)(C)C4)nn3)c(O)c2)cn1` [Example 41-10, 5-(6-(dimethylamino)pyridin-3-yl)-2-(6-(methyl(2,2,6,6-tetramethylpiperidin-4-yl)amino)pyridazin-3-yl)phenol], for which the EC50 is 59 nM and the “SMN activity Fold” value came to 2.80 Fold.
As for `Cn1ccc(-c2ccc(-c3ccc(OC4CC(C)(C)NC(C)(C)C4)nn3)c(O)c2)cc1=O` [Example 41-11, 4-(3-hydroxy-4-(6-((2,2,6,6-tetramethylpiperidin-4-yl)oxy)pyridazin-3-yl)phenyl)-1-methylpyridin-2(1H)-one], the response was half-maximal at 12 nM (EC50) and the “SMN activity Fold” value is 2.78 Fold.
The corresponding values for `CN(c1ccc(-c2ccc(-c3cncnc3)cc2O)nn1)C1CC(C)(C)NC(C)(C)C1` [Example 41-12, 2-(6-(methyl(2,2,6,6-tetramethylpiperidin-4-yl)amino)pyridazin-3-yl)-5-(pyrimidin-5-yl)phenol] are 103 nM and 2.92 Fold.
The corresponding values for `CN(c1ccc(-c2ccc(-c3cncc(O)c3)cc2O)nn1)C1CC(C)(C)NC(C)(C)C1` [Example 41-13, 5-(3-hydroxy-4-(6-(methyl(2,2,6,6-tetramethylpiperidin-4-yl)amino)pyridazin-3-yl)phenyl)pyridin-3-ol] are 308 nM and 3.50 Fold.
